Reference: PubChem BioAssay (NCI)
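GI50 marks 50% less growth. At the TGI there is no net growth.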

Columns and labels:
Test in all cases: inhibition of tumour cell growth, NCI panel, 384-well format
[1] = test system: PC-3 prostate
[2] = test system: HT29 colon
[3] = test system: MDA-MB-231 breast
[4] = test system: SW-620 colon
[5] = test system: SK-MEL-2 melanoma
[6] = test system: UACC-257 melanoma
[7] = test system: NCI-H522 lung
[8] = test system: UACC-62 melanoma
[9] = test system: UO-31 renal
[10] = test system: CCRF-CEM leukemia
[11] = test system: BT-549 breast
[12] = test system: NCI-H322M lung
[13] = test system: HOP-92 NSCLC
[14] = test system: HCC-2998 colon
[15] = test system: A498 renal
[16] = test system: SK-MEL-28 melanoma
[17] = test system: ACHN renal
[18] = test system: NCI-H226 lung
[19] = test system: SF-539 CNS
[20] = test system: OVCAR-4 ovarian
[21] = test system: HS 578T breast
[22] = test system: EKVX NSCLC
[23] = test system: OVCAR-5 ovarian
[24] = test system: IGROV1 ovarian
[25] = test system: RPMI-8226 leukemia
[26] = test system: SR leukemia
[27] = test system: MALME-3M melanoma
[28] = test system: M14 melanoma
[29] = test system: U251 glioblastoma
[30] = test system: MCF7 breast
[31] = test system: SF-295 CNS
[32] = test system: NCI/ADR-RES ovarian
[33] = test system: SK-MEL-5 melanoma
[34] = test system: OVCAR-8 ovarian
[35] = test system: SK-OV-3 ovarian
[36] = test system: MDA-MB-468 breast
[37] = test system: CAKI-1 renal
[38] = test system: SN12C renal
[39] = test system: NCI-H460 NSCLC
[40] = test system: COLO 205 colon
[41] = test system: HOP-62 NSCLC
[42] = test system: DU-145 prostate
[43] = test system: LOX IMVI melanoma
[44] = test system: KM12 colon
[45] = test system: SNB-19 CNS
[46] = test system: HCT-116 colon
[47] = test system: NCI-H23 lung

`O=C(CCCCCCC(=O)N/N=C/c1ccc(N(c2ccccc2)c2ccccc2)cc1)NO` gave a GI50 [1] of 1.77 µM, a TGI [1] of 4.33 µM and a GI50 [2] of 1.8 µM. It also gave a TGI [2] of 3.45 µM, a GI50 [3] of 1.9 µM and a TGI [3] of 4.6 µM. For the same compound, the GI50 [4] was 1.42 µM, the TGI [4] was 2.79 µM and the GI50 [5] was 1.45 µM. It also gave a TGI [5] of 2.83 µM, a GI50 [6] of 0.589 µM and a TGI [6] of 1.31 µM. It also gave a GI50 [7] of 1.44 µM, a TGI [7] of 4.34 µM and a GI50 [8] of 0.397 µM. It also gave a TGI [8] of 1.44 µM, a GI50 [9] of 1.73 µM and a TGI [9] of 8.2 µM. It also gave a GI50 [10] of 0.979 µM, a TGI [10] of 2.26 µM and a GI50 [11] of 2.42 µM. For the same compound, the TGI [11] was 4.88 µM, the GI50 [12] was 3.11 µM and the TGI [12] was 9.54 µM. For the same compound, the GI50 [13] was 1.05 µM, the TGI [13] was 2.62 µM and the GI50 [14] was 1.84 µM. The TGI [14] was 3.87 µM, the GI50 [15] was 0.146 µM and the TGI [15] was 0.283 µM. For the same compound, the GI50 [16] was 2.89 µM, the TGI [16] was 8.29 µM and the GI50 [17] was 1.79 µM. It also gave a TGI [17] of 3.59 µM, a GI50 [18] of 0.187 µM and a TGI [18] of 0.365 µM. It also gave a GI50 [19] of 2.15 µM, a TGI [19] of 4.88 µM and a GI50 [20] of 0.686 µM. It also gave a TGI [20] of 2 µM, a GI50 [21] of 2.11 µM and a TGI [21] of 4.37 µM. The GI50 [22] was 2.62 µM, the TGI [22] was 6.52 µM and the GI50 [23] was 0.665 µM. For the same compound, the TGI [23] was 2.09 µM, the GI50 [24] was 0.413 µM and the TGI [24] was 1.46 µM. The GI50 [25] was 0.26 µM, the TGI [25] was 0.574 µM and the GI50 [26] was 0.144 µM. The TGI [26] was 0.321 µM, the GI50 [27] was 2.07 µM and the TGI [27] was 4.62 µM. It also gave a GI50 [28] of 2.7 µM, a TGI [28] of 7.06 µM and a GI50 [29] of 1.61 µM. For the same compound, the TGI [29] was 3.07 µM, the GI50 [30] was 0.297 µM and the TGI [30] was 1.72 µM. For the same compound, the GI50 [31] was 1.75 µM, the TGI [31] was 3.37 µM and the GI50 [32] was 4.36 µM. It also gave a TGI [32] of 15.9 µM, a GI50 [33] of 1.63 µM and a TGI [33] of 3.1 µM. The GI50 [34] was 1.5 µM, the TGI [34] was 3.88 µM and the GI50 [35] was 1.37 µM. For the same compound, the TGI [35] was 2.83 µM, the GI50 [36] was 0.137 µM and the TGI [36] was 0.277 µM. It also gave a GI50 [37] of 0.256 µM, a TGI [37] of 1.14 µM and a GI50 [38] of 1.83 µM. For the same compound, the TGI [38] was 3.62 µM, the GI50 [39] was 1.16 µM and the TGI [39] was 2.45 µM. For the same compound, the GI50 [40] was 2.12 µM, the TGI [40] was 3.85 µM and the GI50 [41] was 2.04 µM. For the same compound, the TGI [41] was 5.86 µM, the GI50 [42] was 1.74 µM and the TGI [42] was 3.37 µM. For the same compound, the GI50 [43] was 0.19 µM, the TGI [43] was 0.369 µM and the GI50 [44] was 2.63 µM. It also gave a TGI [44] of 9.17 µM, a GI50 [45] of 2.78 µM and a TGI [45] of 7.2 µM. It also gave a GI50 [46] of 0.702 µM, a TGI [46] of 1.89 µM and a GI50 [47] of 1.56 µM. For the same compound, the TGI [47] was 3.17 µM.
